Data reported in ChEMBL document CHEMBL1128368, “Synthesis and serotonergic activity of N,N-dimethyl-2-[5-(1,2,4-triazol-1-ylmethyl)-1H-indol-3-yl]ethylamine and analogues: potent agonists for 5-HT1D receptors” (J Med Chem, 1995).

Legend:
Oryctolagus cuniculus = organism: Oryctolagus cuniculus; assay: Functional activity was determined by the contraction of New Zealand white rabbit saphenous vein.
[1] = molecular target: T1, Serotonin 3 (5-HT3) receptor (Rattus norvegicus, UniProt P35563+Q9JJ16); assay: Inhibition of [3H]-Q-ICS 205-930 binding to rat cortex homogenate 5-hydroxytryptamine 3 receptor
T1 sequence (P35563 whole entry): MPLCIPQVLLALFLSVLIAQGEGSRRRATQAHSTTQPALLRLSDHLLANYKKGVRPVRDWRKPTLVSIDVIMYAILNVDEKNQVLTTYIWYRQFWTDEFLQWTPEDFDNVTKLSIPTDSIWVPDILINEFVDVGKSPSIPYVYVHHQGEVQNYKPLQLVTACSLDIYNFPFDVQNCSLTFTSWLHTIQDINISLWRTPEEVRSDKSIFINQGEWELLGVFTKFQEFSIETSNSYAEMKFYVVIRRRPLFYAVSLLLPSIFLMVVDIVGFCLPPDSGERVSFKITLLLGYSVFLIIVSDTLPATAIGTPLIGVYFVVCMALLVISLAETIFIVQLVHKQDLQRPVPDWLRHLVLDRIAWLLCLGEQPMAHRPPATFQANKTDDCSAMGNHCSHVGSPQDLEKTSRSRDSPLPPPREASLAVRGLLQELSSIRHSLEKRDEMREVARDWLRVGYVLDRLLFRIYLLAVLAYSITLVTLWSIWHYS
T1 sequence (Q9JJ16 whole entry): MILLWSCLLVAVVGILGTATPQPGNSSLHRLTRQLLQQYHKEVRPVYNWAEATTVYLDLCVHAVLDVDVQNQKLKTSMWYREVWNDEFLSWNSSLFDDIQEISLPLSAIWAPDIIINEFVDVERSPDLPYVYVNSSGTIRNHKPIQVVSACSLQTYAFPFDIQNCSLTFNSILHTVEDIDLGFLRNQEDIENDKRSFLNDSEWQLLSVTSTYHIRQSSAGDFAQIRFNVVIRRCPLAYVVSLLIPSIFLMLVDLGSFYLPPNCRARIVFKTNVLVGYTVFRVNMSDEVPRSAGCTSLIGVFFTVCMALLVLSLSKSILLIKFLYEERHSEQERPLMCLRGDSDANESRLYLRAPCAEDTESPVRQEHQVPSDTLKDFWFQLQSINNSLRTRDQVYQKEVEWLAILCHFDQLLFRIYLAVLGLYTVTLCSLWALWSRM

5-HT2C receptors [2] = molecular target: T2, 5-HT2C receptors (Sus scrofa, UniProt K7GSR7); assay: Binding activity against 5-hydroxytryptamine 2C receptor from pig cortex membrane using [3H]mesulergine as radioligand.
[3] = Partition coefficient (logD7.4); settings: octanol/water, pH 7.4
[4] = molecular target: 5-hydroxytryptamine receptor 1D (Sus scrofa, UniProt P79400); assay: Binding activity against 5-hydroxytryptamine 1D receptor from pig caudate membrane using [3H]5-HT as radioligand
[5] = Binding activity against 5-hydroxytryptamine 2C receptor from pig cortex membrane using [3H]mesulergine as radioligand.
5-HT2C receptors [6] = molecular target: T2, 5-HT2C receptors; assay: Binding activity against 5-hydroxytryptamine 2C receptor from pig cortex membrane using [3H]mesulergine as radioligand; NA Not Available
[7] = molecular target: Serotonin 3 (5-HT3) receptor; assay: Binding activity against 5-hydroxytryptamine 1A receptor from human brain cortex using [3H]8-OH-DPAT[…] radioligand.
[8] = molecular target: T1, Serotonin 3 (5-HT3) receptor; assay: Binding activity radioligand.; assay type: protein-complex assay

Sequence of 5-hydroxytryptamine receptor 1D (P79400 whole entry): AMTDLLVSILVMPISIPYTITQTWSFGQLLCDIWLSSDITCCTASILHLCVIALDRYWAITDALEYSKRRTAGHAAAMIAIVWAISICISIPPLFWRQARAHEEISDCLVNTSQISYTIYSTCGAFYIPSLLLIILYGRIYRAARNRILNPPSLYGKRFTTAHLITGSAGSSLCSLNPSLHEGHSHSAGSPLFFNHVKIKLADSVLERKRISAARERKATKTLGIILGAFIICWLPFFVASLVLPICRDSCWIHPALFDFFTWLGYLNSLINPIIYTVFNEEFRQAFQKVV

Structure (SMILES)	EC50 (Oryctolagus cuniculus)	IC50 [1]	IC50 (5-HT2C receptors [2])	logD [3]	further results
CN(C)CCc1c[nH]c2ccc(Cc3nnn(C)n3)cc12	1000 nM	2510 nM	2510 nM	–	–
CN(C)CCc1c[nH]c2ccc(Cn3nccn3)cc12	–	–	–	-0.2	IC50 [4]: 251 nM
CCn1nnc(Cc2ccc3[nH]cc(CCN(C)C)c3c2)n1	631 nM	2510 nM	1580 nM	–	–
CN(C)CCc1c[nH]c2ccc(Cc3nnn[nH]3)cc12	–	–	> 10000 nM	–	–
CN(C)CCc1c[nH]c2ccc(Cc3nc(N)no3)cc12	–	–	398 nM	–	pIC50 [5]: 5.9
CCn1nnnc1Cc1ccc2[nH]cc(CCN(C)C)c2c1	398 nM	> 10000 nM	> 10000 nM	–	–
CN(C)CCc1c[nH]c2ccc(Cn3ccnn3)cc12	1000 nM	–	–	–	IC50 (5-HT2C receptors [6]): 6310 nM
CN(C)CCc1c[nH]c2ccc(Cc3ncn(C)n3)cc12	–	–	–	-1.01	IC50 [4]: 200 nM
CN(C)CCc1c[nH]c2ccc(Cc3ncnn3C)cc12	631 nM	10000 nM	3980 nM	-0.75	–
CN(C)CCc1c[nH]c2ccc(Cn3ccnc3)cc12	501 nM	1260 nM	3160 nM	-0.53	–
CN(C)CCc1c[nH]c2ccc(Cc3nnnn3C)cc12	251 nM	5010 nM	> 10000 nM	–	–
Cc1nccn1Cc1ccc2[nH]cc(CCN(C)C)c2c1	631 nM	1580 nM	7940 nM	–	–
CN(C)CCc1c[nH]c2ccc(Cn3ncnn3)cc12	200 nM	3160 nM	2000 nM	-0.34	–
CN(C)CCc1c[nH]c2ccc(Cn3cnnn3)cc12	200 nM	1260 nM	5010 nM	–	–
Cc1nccn1-c1ccc2[nH]cc(CCN(C)C)c2c1	158 nM	3160 nM	> 10000 nM	-0.13	–
CN(C)CCc1c[nH]c2ccc(Cc3nncn3C)cc12	–	–	> 10000 nM	–	–
CN(C)CCc1c[nH]c2ccc(-n3cncn3)cc12	63.1 nM	10000 nM	10000 nM	–	–
CN(C)CCc1c[nH]c2ccc(Cn3cncn3)cc12 [RIZATRIPTAN]	251 nM	–	6310 nM	-0.74	pIC50 [7]: < 5; IC50 [8]: 3980 nM
